Test results from US20220119354A1, “DIAMINO-SUBSTITUTED PYRIDINES AND PYRIMIDINES AS HERBICIDES” (FMC Corporation, priority 2019, published 2022).

Legend:
Assay type in all cases: in vivo
[1] = test system: barnyardgrass (Echinochloa crus-galli); assay: Test A postemergence, barnyardgrass; conditions: 0 to 100 scale; for Plant response rating, Barnyardgrass: 0 no effect, 100 complete control; for Barnyardgrass plant response rating: 0 is no effect, 100 is complete control
Summary of the method: (§1)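 Greenhouse test; plants at one- to two-leaf stage (2–10 cm) sprayed postemergence with compound in non-phytotoxic solvent/surfactant mix, or soil sprayed preemergence after seeding in loam–sand blend. Injury rated visually versus untreated controls after about 10 d, 0 (no effect) to 100 (complete control).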

[2] = test system: ducksalad (Heteranthera limosa); assay: Test B flooded paddy test, ducksalad; conditions: Flood, 250 g ai/ha, applied to paddy water, 2-leaf stage, visual evaluation after 13 to 15 d
Summary of the method: (§2)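 Plants grown to 2-leaf stage. Compounds applied directly into paddy water flooded 3 cm above soil, with that depth kept throughout. After 13–15 d in greenhouse, visual rating versus controls on a 0–100 scale (0 no effect, 100 complete control).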

[3] = test system: corn (Zea mays); assay: Test A postemergence, corn; conditions: 0 to 100 scale; for Plant response rating, Corn: 0 no effect, 100 complete control; for Corn plant response rating: 0 is no effect, 100 is complete control
Summary of the method: as §1

[4] = test system: barnyardgrass (Echinochloa crus-galli); assay: Test A preemergence, barnyardgrass; conditions: 0 to 100 scale, 0 is no effect, 100 is complete control
Summary of the method: as §1

[5] = test system: pigweed (Amaranthus retroflexus); assay: Test A postemergence, pigweed; conditions: 0 to 100 scale; for Plant response rating, Pigweed: 0 no effect, 100 complete control; for Pigweed plant response rating: 0 is no effect, 100 is complete control
Summary of the method: as §1

[6] = test system: rice (Oryza sativa); assay: Test B flooded paddy test, rice; conditions: Flood, 250 g ai/ha, applied to paddy water, 2-leaf stage, visual evaluation after 13 to 15 d
Summary of the method: as §2

[7] = test system: blackgrass (Alopecurus myosuroides); assay: Test A postemergence, blackgrass; conditions: 0 to 100 scale; for Plant response rating, Blackgrass: 0 no effect, 100 complete control; for Blackgrass plant response rating: 0 is no effect, 100 is complete control
Summary of the method: as §1

[8] = test system: foxtail, giant (Setaria faberii); assay: Test A preemergence, giant foxtail; conditions: 0 to 100 scale, 0 is no effect, 100 is complete control
Summary of the method: as §1

[9] = test system: ragweed (common ragweed, Ambrosia elatior); assay: Test A postemergence, ragweed; conditions: 0 to 100 scale; for Plant response rating, Ragweed: 0 no effect, 100 complete control; for Ragweed plant response rating: 0 is no effect, 100 is complete control
Summary of the method: as §1

[10] = test system: foxtail, giant (Setaria faberii); assay: Test A postemergence, giant foxtail; conditions: 0 to 100 scale; for Plant response rating, Foxtail, Giant: 0 no effect, 100 complete control; for Foxtail, Giant plant response rating: 0 is no effect, 100 is complete control
Summary of the method: as §1

[11] = test system: ragweed (common ragweed, Ambrosia elatior); assay: Test A preemergence, ragweed; conditions: 0 to 100 scale, 0 is no effect, 100 is complete control
Summary of the method: as §1

[12] = test system: ryegrass, Italian (Lolium multiflorum); assay: Test A preemergence, Italian ryegrass; conditions: 0 to 100 scale, 0 is no effect, 100 is complete control
Summary of the method: as §1

[13] = test system: sedge, umbrella (small-flower umbrella sedge, Cyperus difformis); assay: Test B flooded paddy test, umbrella sedge; conditions: Flood, 250 g ai/ha, applied to paddy water, 2-leaf stage, visual evaluation after 13 to 15 d
Summary of the method: as §2

[14] = test system: pigweed (Amaranthus retroflexus); assay: Test A preemergence, pigweed; conditions: 0 to 100 scale, 0 is no effect, 100 is complete control
Summary of the method: as §1

[15] = test system: kochia (Kochia scoparia); assay: Test A postemergence, kochia; conditions: 0 to 100 scale; for Plant response rating, Kochia: 0 no effect, 100 complete control; for Kochia plant response rating: 0 is no effect, 100 is complete control
Summary of the method: as §1

[16] = test system: galium (catchweed bedstraw, Galium aparine); assay: Test A postemergence, galium; conditions: 0 to 100 scale; for Plant response rating, Galium: 0 no effect, 100 complete control; for Galium plant response rating: 0 is no effect, 100 is complete control
Summary of the method: as §1

[17] = test system: kochia (Kochia scoparia); assay: Test A preemergence, kochia; conditions: 0 to 100 scale, 0 is no effect, 100 is complete control
Summary of the method: as §1

[18] = test system: wheat (Triticum aestivum); assay: Test A postemergence, wheat; conditions: 0 to 100 scale; for Plant response rating, Wheat: 0 no effect, 100 complete control; for Wheat plant response rating: 0 is no effect, 100 is complete control
Summary of the method: as §1

[19] = test system: ryegrass, Italian (Lolium multiflorum); assay: Test A postemergence, Italian ryegrass; conditions: 0 to 100 scale; for Plant response rating, Ryegrass, Italian: 0 no effect, 100 complete control; for Ryegrass, Italian plant response rating: 0 is no effect, 100 is complete control
Summary of the method: as §1

[20] = test system: barnyardgrass (Echinochloa crus-galli); assay: Test B flooded paddy test, barnyardgrass; conditions: Flood, 250 g ai/ha, applied to paddy water, 2-leaf stage, visual evaluation after 13 to 15 d
Summary of the method: as §2

Structure (SMILES)	Plant response rating, Barnyardgrass ([1]; 125 g ai/ha)	Plant response rating, Ducksalad (0 to 100 scale, 0 is no effect, 100 is complete control) [2]	Plant response rating, Corn ([3]; 125 g ai/ha)	Barnyardgrass plant response rating ([4]; 125 g ai/ha)	Barnyardgrass plant response rating ([4]; 500 g ai/ha)	Plant response rating, Pigweed ([5]; 125 g ai/ha)	Plant response rating, Rice (0 to 100 scale, 0 is no effect, 100 is complete control) [6]	Plant response rating, Blackgrass ([7]; 125 g ai/ha)	Foxtail, Giant plant response rating ([8]; 125 g ai/ha)	Foxtail, Giant plant response rating ([8]; 500 g ai/ha)	Plant response rating, Ragweed ([9]; 125 g ai/ha)	Plant response rating, Foxtail, Giant ([10]; 125 g ai/ha)	Ragweed plant response rating ([11]; 125 g ai/ha)	Ragweed plant response rating ([11]; 500 g ai/ha)	Ryegrass, Italian plant response rating ([12]; 125 g ai/ha)	Ryegrass, Italian plant response rating ([12]; 500 g ai/ha)	Plant response rating, Sedge, Umbrella (0 to 100 scale, 0 is no effect, 100 is complete control) [13]	Pigweed plant response rating ([14]; 125 g ai/ha)	Pigweed plant response rating ([14]; 500 g ai/ha)	Plant response rating, Kochia ([15]; 125 g ai/ha)	other results
CC[C@@H](Nc1ncc(C(F)(F)F)c(N)n1)c1cc2ccc(F)cc2s1 [Compound 48]	0	0	0	0	40	90	0	30	60	90	20	10	30	100	0	60	0	60	100	30	Barnyardgrass plant response rating ([1]; 500 g ai/ha): 30; Corn plant response rating ([3]; 500 g ai/ha): 30; Pigweed plant response rating ([5]; 500 g ai/ha): 100; Blackgrass plant response rating ([7]; 500 g ai/ha): 30; Ragweed plant response rating ([9]; 500 g ai/ha): 70; Foxtail, Giant plant response rating ([10]; 500 g ai/ha): 30; Kochia plant response rating ([15]; 500 g ai/ha): 90; Plant response rating, Galium ([16]; 125 g ai/ha): 60; Galium plant response rating ([16]; 500 g ai/ha): 90; Kochia plant response rating ([17]; 125 g ai/ha): 0; Kochia plant response rating ([17]; 500 g ai/ha): 80; Plant response rating, Wheat ([18]; 125 g ai/ha): 0; Wheat plant response rating ([18]; 500 g ai/ha): 0; Plant response rating, Ryegrass, Italian ([19]; 125 g ai/ha): 0; Ryegrass, Italian plant response rating ([19]; 500 g ai/ha): 40; Plant response rating, Barnyardgrass (0 to 100 scale, 0 is no effect, 100 is complete control) [20]: 0
C[C@@H](Nc1nc(N)c(C(F)(F)F)c(C(F)(F)F)n1)c1cc2ccccc2o1 [Compound 65]	0	0	0	0	0	0	0	0	0	0	0	0	0	40	0	0	0	0	0	0	Plant response rating, Barnyardgrass ([1]; 500 g ai/ha): 0; Plant response rating, Corn ([3]; 500 g ai/ha): 0; Plant response rating, Pigweed ([5]; 500 g ai/ha): 30; Plant response rating, Blackgrass ([7]; 500 g ai/ha): 0; Plant response rating, Ragweed ([9]; 500 g ai/ha): 0; Plant response rating, Foxtail, Giant ([10]; 500 g ai/ha): 0; Plant response rating, Kochia ([15]; 500 g ai/ha): 60; Plant response rating, Galium ([16]; 125 g ai/ha): 0; Plant response rating, Galium ([16]; 500 g ai/ha): 0; Kochia plant response rating ([17]; 125 g ai/ha): 0; Kochia plant response rating ([17]; 500 g ai/ha): 0; Plant response rating, Wheat ([18]; 125 g ai/ha): 30; Plant response rating, Wheat ([18]; 500 g ai/ha): 30; Plant response rating, Ryegrass, Italian ([19]; 125 g ai/ha): 0; Plant response rating, Ryegrass, Italian ([19]; 500 g ai/ha): 0; Plant response rating, Barnyardgrass (0 to 100 scale, 0 is no effect, 100 is complete control) [20]: 0
CC(Nc1nc(N)c(C(F)(F)F)c(C(F)(F)F)n1)c1coc2ccccc12 (stereo not drawn) [Compound 87]	0	0	0	0	0	0	0	0	0	0	0	0	0	0	0	0	0	0	10	0	Plant response rating, Barnyardgrass ([1]; 500 g ai/ha): 0; Plant response rating, Corn ([3]; 500 g ai/ha): 0; Plant response rating, Pigweed ([5]; 500 g ai/ha): 60; Plant response rating, Blackgrass ([7]; 500 g ai/ha): 0; Plant response rating, Ragweed ([9]; 500 g ai/ha): 20; Plant response rating, Foxtail, Giant ([10]; 500 g ai/ha): 0; Plant response rating, Kochia ([15]; 500 g ai/ha): 30; Plant response rating, Galium ([16]; 125 g ai/ha): 0; Plant response rating, Galium ([16]; 500 g ai/ha): 0; Kochia plant response rating ([17]; 125 g ai/ha): 0; Kochia plant response rating ([17]; 500 g ai/ha): 0; Plant response rating, Wheat ([18]; 125 g ai/ha): 0; Plant response rating, Wheat ([18]; 500 g ai/ha): 0; Plant response rating, Ryegrass, Italian ([19]; 125 g ai/ha): 0; Plant response rating, Ryegrass, Italian ([19]; 500 g ai/ha): 0; Plant response rating, Barnyardgrass (0 to 100 scale, 0 is no effect, 100 is complete control) [20]: 0
CCC(Nc1ncc(C(F)(F)F)c(N)n1)c1coc2ccccc12 (racemic) [Compound 53]	0	0	0	0	80	60	0	0	90	90	20	10	100	90	20	20	0	80	90	50	Barnyardgrass plant response rating ([1]; 500 g ai/ha): 30; Corn plant response rating ([3]; 500 g ai/ha): 0; Pigweed plant response rating ([5]; 500 g ai/ha): 100; Blackgrass plant response rating ([7]; 500 g ai/ha): 0; Ragweed plant response rating ([9]; 500 g ai/ha): 80; Foxtail, Giant plant response rating ([10]; 500 g ai/ha): 30; Kochia plant response rating ([15]; 500 g ai/ha): 90; Plant response rating, Galium ([16]; 125 g ai/ha): 30; Galium plant response rating ([16]; 500 g ai/ha): 80; Kochia plant response rating ([17]; 125 g ai/ha): 60; Kochia plant response rating ([17]; 500 g ai/ha): 90; Plant response rating, Wheat ([18]; 125 g ai/ha): 0; Wheat plant response rating ([18]; 500 g ai/ha): 0; Plant response rating, Ryegrass, Italian ([19]; 125 g ai/ha): 20; Ryegrass, Italian plant response rating ([19]; 500 g ai/ha): 60; Plant response rating, Barnyardgrass (0 to 100 scale, 0 is no effect, 100 is complete control) [20]: 0
